Reference: PubChem BioAssay (NCI)
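Grown in 96-well plates, cells were treated for 48 hours with each compound at five concentrations. Insufficient inhibition: endpoint recorded as highest concentration tested. TGI denotes the concentration required for complete inhibition of growth.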

Legend:
Assay in all cases: DTP human tumour cell line panel, 48 h
[1] = tested on: BT-549 breast
[2] = tested on: KM12 colon
[3] = tested on: SK-MEL-28 melanoma
[4] = tested on: RXF 393 renal
[5] = tested on: SNB-19 CNS
[6] = tested on: A549 NSCLC
[7] = tested on: T-47D breast
[8] = tested on: EKVX NSCLC
[9] = tested on: OVCAR-5 ovarian
[10] = tested on: SN12C renal
[11] = tested on: MDA-MB-435
[12] = tested on: OVCAR-4 ovarian
[13] = tested on: SNB-75 CNS
[14] = tested on: CAKI-1 renal
[15] = tested on: SF-539 CNS
[16] = tested on: HL-60(TB) leukemia
[17] = tested on: CCRF-CEM leukemia
[18] = tested on: NCI-H460 lung
[19] = tested on: SF-295 CNS
[20] = tested on: TK-10 renal

Measured: TGI

NC(CCOCCP(=O)(O)O)C(=O)O (stereo not given)
> 100 µM: all assays above
